Measurements published in patent US5994055A, “HIV trans-activator Tat binding to CDK7 and activation of CTD phosphorylation” (priority 1997, dated 1999).
Where no end group is shown, it is not given here. [ ]: non-standard residue; d: D form.

Columns and labels:
[1] = system: Tat trans-activation of the HIV LTR in COS-7 cells; test: Peptide electroporation into COS-7 cells with pHIVΔKBCAT reporter, RNase protection assay; assay type: cell-based
[2] = system: DHFR promoter; test: In vitro transcription from the DHFR promoter (G-less cassette); assay type: biochemical; conditions: concentration not given
Method: Run-off transcription reactions from the wild-type HIV LTR and AdMLT promoters linearized with NcoI and HindIII respectively, were carried out as described (Okamoto et al., Proc. Natl. Acad. Sci. USA 93:11575-11579 (1996); Cujec et al., Mol. Cell. Biol. 17:1817-1823 (1997)). Transcription reactions containing the DHFR promoter (500 ng) fused to a G-less cassette (linearized at Nco I) were supplemented with 3 mM (NH4)2 SO4, 2% PEG 8000, 50 units of T1 RNase (Boehringer-Mannheim), 500 U of RNase inhibitor (Boehringer-Mannheim) and contained 5 μM instead of 40 μM of unlabeled UTP. Phosphocreatine, poly (d)I-(d)C, and poly(rI-rC) were omitted from the reactions.

[3] = system: Tat trans-activation of the HIV LTR; test: In vitro run-off transcription from the wild-type HIV LTR; assay type: biochemical; conditions: increasing concentrations / concentration not stated
Method: The ability of molecules to inhibit Tat trans-activation can be assessed using a variety of in vitro and in vivo assays. For example, Tat trans-activation can be assessed using in vitro run-off transcription reactions with transcription extracts (see, e.g., Current Protocols in Molecular Biology (Ausubel et al., eds., 1997)). In such an assay, nuclear transcription extracts are prepared from cultured mammalian cells according to standard procedures (see, e.g., Dignam et al., Nuc. Acids. Res. 11: 1475-1489 (1983)). Recombinant Tat protein is isolated according to standard procedures and added to the nuclear transcription extract along with the other components of the transcription reaction such as nucleotides (see, e.g., Cujec et al., supra; Example V). The reaction is also supplied with HIV promoter DNA sequences operably linked to a structural gene.
Run-off transcription reactions from the wild-type HIV LTR and AdMLT promoters linearized with NcoI and HindIII respectively, were carried out as described (Okamoto et al., Proc. Natl. Acad. Sci. USA 93:11575-11579 (1996); Cujec et al., Mol. Cell. Biol. 17:1817-1823 (1997)). […]

[4] = molecular target: T1, recombinant CAK (CDK7, cyclin H, MAT1) (Homo sapiens, UniProt P50613); test: Kinase reaction: phosphorylation of the CTD by recombinant CAK; assay type: biochemical
T1 construct: made in house; host or cells: Sf9 insect cells (baculovirus co-infection)
T1 sequence (P51946 whole entry): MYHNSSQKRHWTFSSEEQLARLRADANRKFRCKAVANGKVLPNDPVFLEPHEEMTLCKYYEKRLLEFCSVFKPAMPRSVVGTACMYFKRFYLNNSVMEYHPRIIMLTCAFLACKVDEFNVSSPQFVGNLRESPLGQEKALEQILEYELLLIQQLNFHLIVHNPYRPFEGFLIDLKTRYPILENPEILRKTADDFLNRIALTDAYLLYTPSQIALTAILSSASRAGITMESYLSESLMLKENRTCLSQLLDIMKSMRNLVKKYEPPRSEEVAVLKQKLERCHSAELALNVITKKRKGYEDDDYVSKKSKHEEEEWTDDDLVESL
T1 sequence (P50613 2-346): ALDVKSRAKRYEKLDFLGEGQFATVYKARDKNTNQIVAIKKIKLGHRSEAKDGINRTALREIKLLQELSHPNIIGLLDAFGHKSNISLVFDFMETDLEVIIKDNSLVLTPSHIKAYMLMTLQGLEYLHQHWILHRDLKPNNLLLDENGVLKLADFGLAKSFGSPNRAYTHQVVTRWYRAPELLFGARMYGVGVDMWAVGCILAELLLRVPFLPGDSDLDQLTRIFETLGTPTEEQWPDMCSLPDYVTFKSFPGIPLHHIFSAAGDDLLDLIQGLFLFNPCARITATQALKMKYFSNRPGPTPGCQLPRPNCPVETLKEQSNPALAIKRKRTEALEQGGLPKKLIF
T1 sequence (P51949 whole entry, further chain): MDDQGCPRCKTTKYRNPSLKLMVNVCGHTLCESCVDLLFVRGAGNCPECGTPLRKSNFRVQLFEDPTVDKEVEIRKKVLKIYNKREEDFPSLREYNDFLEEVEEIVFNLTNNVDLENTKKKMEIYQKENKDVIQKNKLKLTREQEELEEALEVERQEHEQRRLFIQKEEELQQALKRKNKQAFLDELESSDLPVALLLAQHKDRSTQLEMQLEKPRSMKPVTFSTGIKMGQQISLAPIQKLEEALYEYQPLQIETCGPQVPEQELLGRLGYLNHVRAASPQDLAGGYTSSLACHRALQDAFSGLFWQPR
Method: Recombinant baculoviruses encoding human CDK7 (Fisher et al., Cell 78:713-724 (1994)), MAT1 (Fisher et al., Cell 83:47-57 (1995)), and an N-terminally 6-histidine tagged version of cyclin H (Kim et al., Cell 77:599-608 (1994)) were constructed as described. 4×10^9 Sf9 insect cells were co-infected with all three baculoviruses (multiplicity of infection for each virus: 5 pfu/cell), incubated 2 days at 28° C., and harvested by centrifugation. Cells were resuspended in 120 ml buffer A (20 mM Na phosphate, 25 mM NaCl, 1 mM PMSF, 1 Ag/ml leupeptin, 2 μg/ml aprotinin, 1 mM DTT (pH 7.4). NaCl concentration was raised to 300 mM and the lysate was clarified by centrifugation and loaded over tandem 5-ml Pharmacia HiTrap Chelating columns loaded with CoCl2 and preequilibrated with buffer B (300 mM NaCl, 20 mM Na phosphate, 10% glycerol (pH 7.2)). The column was washed with buffer B+1 mM DTT and eluted with a linear gradient of 0-200 mM imidazole in buffer B+1 mM DTT. Fractions containing the CAK trimer were pooled, diluted 4-fold in buffer C (20 mM Hepes-NaOH, 1 mM EDTA, 10% glycerol, 1 mM DTT (pH 7.4)), and loaded on a 5 ml Pharmacia HiTrap Q column pre-equilibrated with buffer C. The column was washed with buffer C and eluted with a linear gradient of 25-1000 mM NaCl in buffer C. […]

Q: With “HARTVGVWYRAEYARFVTPaVV (HARTVGVWYRAEYARFVTP[dA]VV) [rC2p, control]” as the substance, how does the “transcription in the absence of Tat” value ([1]; increasing concentrations, data not presented) read?
A: Its value is “no effect”.

Q: What about the “ratio of long to short transcripts” value ([1]; regardless of peptide concentration) of the same substance?
A: Its value is “remained the same”.

Q: And the “transcription from the DHFR promoter” value [2]?
A: Its value is “no effect”.

Q: What about the Tat trans-activation [3] of the same substance?
A: Its Tat trans-activation is “did not affect”.

Q: What about the “effect on the kinase activity of CAK” value ([4]; concentration not given) of the same substance?
A: Its value is “no effect”.

Q: How did the IC50 [4] turn out when ARAFGVPVRTYAHEVVTLWYRA [mC2p] was run?
A: The IC50 was 1300 nM.
